Assays:
[1] = molecular target: T1, soluble guanylate cyclase α1β1 (sGC) (Homo sapiens, UniProt Q02108+Q02153); assay: SPR (Biacore T200), concentration series; format: binding
T1 construct: gene GUCY1B1; α1β1 catalytic domain (sGCcat); with sGC α1 subunit (GUCY1A1)
T1 sequence (Q02153 408-619 limits assumed): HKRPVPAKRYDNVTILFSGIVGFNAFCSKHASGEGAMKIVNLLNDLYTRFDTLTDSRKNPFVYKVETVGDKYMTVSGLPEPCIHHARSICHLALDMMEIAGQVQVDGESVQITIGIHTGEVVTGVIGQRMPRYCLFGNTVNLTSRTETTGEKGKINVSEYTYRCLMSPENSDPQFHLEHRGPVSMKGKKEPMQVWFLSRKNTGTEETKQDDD
T1 sequence (Q02108 467-690): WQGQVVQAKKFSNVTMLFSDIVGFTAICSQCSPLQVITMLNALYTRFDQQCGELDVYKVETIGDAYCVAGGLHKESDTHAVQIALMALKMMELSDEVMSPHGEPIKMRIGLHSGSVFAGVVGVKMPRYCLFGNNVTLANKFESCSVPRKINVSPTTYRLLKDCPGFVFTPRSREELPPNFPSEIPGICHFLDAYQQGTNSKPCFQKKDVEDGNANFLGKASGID

[2] = molecular target: T2, soluble guanylate cyclase α1β1 (sGC) (Homo sapiens, UniProt Q02153); assay: SPR (Biacore T200) at […]; format: binding
T2 construct: gene GUCY1B1; full length sGC; with sGC α1 subunit (GUCY1A1)
T2 sequence (Q02153 1-619): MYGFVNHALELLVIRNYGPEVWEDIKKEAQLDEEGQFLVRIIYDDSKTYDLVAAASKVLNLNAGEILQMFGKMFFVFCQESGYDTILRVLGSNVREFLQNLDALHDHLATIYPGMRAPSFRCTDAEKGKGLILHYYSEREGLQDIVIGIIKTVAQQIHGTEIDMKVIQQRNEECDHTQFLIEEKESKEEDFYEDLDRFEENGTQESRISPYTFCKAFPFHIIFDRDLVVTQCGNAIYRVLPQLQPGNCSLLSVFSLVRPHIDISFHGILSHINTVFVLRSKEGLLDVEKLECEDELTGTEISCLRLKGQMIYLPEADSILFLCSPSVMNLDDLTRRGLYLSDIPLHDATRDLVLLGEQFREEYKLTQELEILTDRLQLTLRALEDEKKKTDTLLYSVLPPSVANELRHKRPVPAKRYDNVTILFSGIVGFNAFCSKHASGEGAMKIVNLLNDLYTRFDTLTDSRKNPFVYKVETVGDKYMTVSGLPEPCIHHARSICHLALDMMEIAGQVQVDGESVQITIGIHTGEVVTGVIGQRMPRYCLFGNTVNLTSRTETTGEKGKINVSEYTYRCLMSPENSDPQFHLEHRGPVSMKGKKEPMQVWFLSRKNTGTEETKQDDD
T2 sequence (Q02108 1-690 partner): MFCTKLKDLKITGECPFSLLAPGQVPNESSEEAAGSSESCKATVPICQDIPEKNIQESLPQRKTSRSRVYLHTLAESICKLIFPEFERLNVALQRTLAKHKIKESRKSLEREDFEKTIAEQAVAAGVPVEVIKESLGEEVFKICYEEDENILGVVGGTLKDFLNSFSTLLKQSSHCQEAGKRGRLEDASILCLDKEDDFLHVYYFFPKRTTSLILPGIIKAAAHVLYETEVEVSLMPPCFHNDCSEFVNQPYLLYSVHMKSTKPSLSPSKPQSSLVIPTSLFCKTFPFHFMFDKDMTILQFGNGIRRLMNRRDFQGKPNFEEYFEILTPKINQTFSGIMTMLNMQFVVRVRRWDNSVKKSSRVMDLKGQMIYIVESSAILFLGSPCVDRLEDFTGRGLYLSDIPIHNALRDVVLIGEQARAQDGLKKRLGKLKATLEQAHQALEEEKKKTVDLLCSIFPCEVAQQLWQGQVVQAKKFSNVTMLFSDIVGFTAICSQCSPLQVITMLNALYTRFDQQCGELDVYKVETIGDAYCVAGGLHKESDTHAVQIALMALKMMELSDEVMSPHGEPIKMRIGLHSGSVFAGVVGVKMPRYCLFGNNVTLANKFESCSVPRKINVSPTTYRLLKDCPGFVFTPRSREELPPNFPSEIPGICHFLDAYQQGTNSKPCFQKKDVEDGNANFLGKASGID

SMILES | Kd [1] | SPR (Biacore T200) at 100 μM [2]
Nc1nc2c(ncn2[C@@H]2O[C@H](COP(=O)(O)OP(=O)(O)OP(=O)(O)O)[C@@H](O)[C@H]2O)c(=O)[nH]1 [GTP] | 326 µM | –
O=C(O)CCCCN(CCc1ccccc1OCc1ccc(CCc2ccccc2)cc1)Cc1ccc(C(=O)O)cc1 [compound 1, BAY 58-2667] | – | showed strong binding to the full length sGC and only non-specific binding to sGCcat
